“And” between values parts separate entries of the source, which are not always exact repeats. Identical values can stand only once.
Columns and labels:
[1] = test system: DHT-induced AGA mice; assay: Hair regrowth in DHT-induced AGA mice model (topical, 28 days); type: in vivo, C57BL/6J mice; conditions: for H&E skin histopathology finding: Days 7, 14, 21, 28
Experimental: (§1) C57BL/6 J mice (male) were obtained from CSIR-IIIM Animal House at 7 weeks of age. We used a DHT-induced AGA mice model for this study. […] At the end of the experiment, skin samples were collected and preserved in 10% neutral buffered formalin for tissue sectioning and staining using haematoxylin and eosin (H&E). The histopathological examinations were performed under the 10× and 40× objectives of light microscope (Magnus, Mx21i).
Dorsal skin samples from C57BL/6J mice were shaved and collected for histological and molecular analyses on Days 7, 14, 21, and 28. The full-thickness skin tissue was fixed in a 10% neutral buffered formalin solution (Sigma) overnight and subsequently dehydrated for embedding in paraffin. Haematoxylin and eosin (H&E) staining was performed on the skin tissue, and digital photomicrographs were taken from the representative areas using light microscope (Magnus, Mx21i).
The quantification of anagen initiation was assessed by observing changes in the dorsal skin colour of C57BL/6 mice, a phenomenon closely linked to the onset of the anagen phase. Anagen quantification was done by employing threshold analysis on dorsal skin colouration using ImageJ. The darkening of the skin, attributed to melanogenesis, strongly correlates with the progression of anagen. This analysis is visually depicted as a heatmap using GraphPad Prism 9.5 Software.

[2] = Body weight, biochemical and haematological parameters in DHT-induced AGA mice (0.5% testosterone then topical treatment); type: in vivo, C57BL/6J mice; conditions: for Weight of C57BL/6J mice: individual mice; for LYMPH: unit assumed
Experimental: The experiments were performed on C57BL/6 J and Athymic nude mice (NU/J Foxn1^nu) of 6–7 weeks of age obtained from Animal House Facility, CSIR-Indian Institute of Integrative Medicine (IIIM), Jammu, India. […] The animals were provided with ad libitum feed (standard pellet diet) and autoclaved RO water throughout the study. The body weight of mice was measured after seven days before treatment.
as §1
Every two weeks during the experimental period, mice were anesthetized, and the blood samples were collected into tubes containing heparin sodium to detect the total and differential white blood cells, haemoglobin, red blood cell, platelet count, mean corpuscular haemoglobin, mean corpuscular volume, red blood cell volume, mean platelet volume, and analyzed using an automated haematology analyzer (Model: XT1800i; Make: Sysmex).
Every two weeks during the experimental period, mice and rats were anesthetized, and blood samples were collected into non-heparinized tubes and then centrifuged at 1000 rpm at 4 °C for 10 min to obtain the serum. The biochemical parameters, including total protein, aspartate aminotransferase, alanine aminotransferase, total protein, albumin, total bilirubin, direct bilirubin, glucose, total cholesterol, triglyceride, low-density lipoprotein, high-density lipoprotein, creatinine, and uric acid, were measured using an automatic biochemical analyzer (Model: EM360; Make: Erba Mannheim).

## Fc1ccc(-c2cnc3[nH]cc(-c4ccnc(NC5CC5)n4)c3c2)cc1 [MJ04]
[1]; 0.04 mg/Kg topical
  hair growth compared to controls and tofacitinib-treated mice: significantly higher and homogeneous hair growth
[1]; 0.04mg/kg
  H&E skin histopathology finding: Minimal degree of epidermal atrophy
[1]; 0.08mg/kg
  H&E skin histopathology finding: Normal epidermis with increased hair follicles
[1]; skin samples days 7, 14, 21, 28
  hair follicle phase (histopathology): at least in the anagen IIIc-IV phase
[1]; topical once a day in presence of testosterone
  entry into the anagen phase: rapid entry into the anagen phase within seven days of treatment
[1]; within 10 days of treatment
  mice displaying intense skin darkening followed by hair growth: around 90%
[2]; 0.016 mg/Kg, DAY 1, in g (unit assumed)
  Weight of C57BL/6J mice: 27.2 and 23.8 and 24.6 and 24.7 and 25.6 and 25.7 and 25.8
[2]; 0.016 mg/Kg, DAY 7
  Weight of C57BL/6J mice: 28.1 and 25.1 and 26.1 (2×) and 26.9 and 27.1 and 27.3
[2]; 0.016 mg/Kg, DAY 14, in g (unit assumed)
  Weight of C57BL/6J mice: 29.3 and 26.4 and 27.3 and 27.4 and 28.1 and 28.4 and 28.7
[2]; 0.016 mg/Kg, DAY 21, in g (unit assumed)
  Weight of C57BL/6J mice: 27.6 and 28.7 and 28.9 and 29.7 and 30.1 and 30.4
[2]; 0.016 mg/Kg, DAY 28
  Weight of C57BL/6J mice: 30.3 and 30.4 (2×) and 31.6 and 31.7
[2]; 0.04 mg/Kg, DAY 1
  Weight of C57BL/6J mice: 24.2 and 24.6 and 25.6 (2×) and 25.7 and 25.8 and 26.3 and 27.4
[2]; 0.04 mg/Kg, DAY 7, in g (unit assumed)
  Weight of C57BL/6J mice: 26.1 and 26.3 and 26.4 and 26.7 and 26.9 and 27.1 and 27.2 and 28.7
[2]; 0.04 mg/Kg, DAY 14
  Weight of C57BL/6J mice: 28.1 and 28.3 (2×) and 28.5 and 28.6 and 28.7 and 29.6
[2]; 0.04 mg/Kg, DAY 21
  Weight of C57BL/6J mice: 29.4 and 29.7 and 29.8 and 30.1 and 30.4 (2×)
[2]; 0.04 mg/Kg, DAY 28
  Weight of C57BL/6J mice: 30.3 and 31.2 (2×) and 31.3 and 31.5
[2]; 0.08 mg/Kg, DAY 1
  Weight of C57BL/6J mice: 24.8 and 25.4 (2×) and 26.4 (2×) and 24.2 and 25.6 and 25.9
[2]; 0.08 mg/Kg, DAY 7
  Weight of C57BL/6J mice: 26.7 (3×) and 25.5 and 27.3 and 27.5 and 28.37 and 25.7
[2]; 0.08 mg/Kg, DAY 14
  Weight of C57BL/6J mice: 27.6 and 28.1 (2×) and 28.4 and 27.1 and 29.3 and 27.4
[2]; 0.08 mg/Kg, DAY 21
  Weight of C57BL/6J mice: 29.4 (2×) and 29.7 and 30.1 and 30.7 and 28.6
[2]; 0.08 mg/Kg, DAY 28
  Weight of C57BL/6J mice: 30.3 and 31.2 and 31.3 (2×) and 30.2
[2]; Day 21, 0.016 mg/Kg
  ALP: 99 U/L
  ALT/SGPT: 86 U/L
  AST/SGOT: 143 U/L
  Cholesterol: 154 mg/dL
  Creatine: 0.72 mg/dL
  HCT: 48%
  HDL: 112 mg/dL
  HGB: 14 g/dL
  LDL: 103 mg/dL
  MCHC: 29 g/dL
  MCV: 50 fL
  NEUT: 25.7%
  PLT: 1105 103/μl
  RBC: 9.7 1012/l
  Total protein: 5.2 g/dL
  Triglyceride: 114 mg/dL
  Urea: 55 mg/dL
  WBC: 6.5 103/μl
  LYMPH: 73.3%
[2]; Day 21, 0.04 mg/Kg
  ALP: 121 U/L
  ALT/SGPT: 74 U/L
  AST/SGOT: 148 U/L
  Cholesterol: 138 mg/dL
  Creatine: 0.69 mg/dL
  HCT: 46%
  HDL: 111 mg/dL
  HGB: 13 g/dL
  LDL: 101 mg/dL
  MCHC: 29 g/dL
  MCV: 50 fL
  NEUT: 39.4%
  PLT: 899 103/μl
  RBC: 9.0 1012/l
  Total protein: 4.9 g/dL
  Triglyceride: 127 mg/dL
  Urea: 49 mg/dL
  WBC: 3.0 103/μl
  LYMPH: 60.3%
[2]; Day 21, 0.08 mg/Kg
  ALP: 111 U/L
  ALT/SGPT: 58 U/L
  AST/SGOT: 114 U/L
  Cholesterol: 184 mg/dL
  Creatine: 0.49 mg/dL
  HCT: 36%
  HDL: 105 mg/dL
  HGB: 10 g/dL
  LDL: 102 mg/dL
  MCHC: 28 g/dL
  MCV: 50 fL
  NEUT: 32.4%
  PLT: 424 103/μl
  RBC: 6.9 1012/l
  Total protein: 5.2 g/dL
  Triglyceride: 108 mg/dL
  Urea: 71 mg/dL
  WBC: 3.3 103/μl
  LYMPH: 63%
[2]; Day 28, 0.016 mg/Kg
  ALP: 193 U/L
  ALT/SGPT: 85 U/L
  AST/SGOT: 75 U/L
  Cholesterol: 194 mg/dL
  Creatine: 0.20 mg/dL
  HCT: 46.0%
  HDL: 94 mg/dL
  HGB: 14 g/dL
  LDL: 109 mg/dL
  MCHC: 30.0 g/dL
  MCV: 63 fL
  PLT: 1727 103/μl
  RBC: 7.4 106/μl
  Total protein: 6.3 g/dL
  Triglyceride: 132 mg/dL
  Urea: 54 mg/dL
  WBC: 7.8 103/μl
[2]; Day 28, 0.04 mg/Kg
  ALP: 243 U/L
  ALT/SGPT: 69 U/L
  AST/SGOT: 107 U/L
  Cholesterol: 165 mg/dL
  Creatine: 0.14 mg/dL
  HCT: 46.0%
  HDL: 108 mg/dL
  HGB: 14 g/dL
  LDL: 91 mg/dL
  MCHC: 30.0 g/dL
  MCV: 62.0 fL
  PLT: 1687 103/μl
  RBC: 7.5 106/μl
  Total protein: 5.8 g/dL
  Triglyceride: 122 mg/dL
  Urea: 52 mg/dL
  WBC: 7.5 103/μl
[2]; Day 28, 0.08 mg/Kg
  ALP: 189 U/L
  ALT/SGPT: 63 U/L
  AST/SGOT: 113 U/L
  Cholesterol: 194 mg/dL
  Creatine: 0.13 mg/dL
  HCT: 52.0%
  HDL: 106 mg/dL
  HGB: 15 g/dL
  LDL: 78 mg/dL
  MCHC: 29.0 g/dL
  MCV: 61.0 fL
  PLT: 1362 103/μl
  RBC: 8.6 106/μl
  Total protein: 6.2 g/dL
  Triglyceride: 174 mg/dL
  Urea: 79 mg/dL
  WBC: 7.1 103/μl

— PMC11025159 (Journal of Translational Medicine, 2024)
